According to patent US11129910B2, “Specific conjugation linkers, specific immunoconjugates thereof, methods of making and uses such conjugates thereof” (priority 2016, dated 2021):

What was measured:
[1] = test system: NCI-N87, a human gastric carcinoma cell line; assay: In vitro cytotoxicity (MTT) assay; assay type: cell-based; conditions: NCI-N87 cells, 120 hours incubation, read-out: N87 cell (Ag+) IC50
Protocol: The cell line used in the cytotoxicity assays was NCI-N87, a human gastric carcinoma cell line. The cells were grown in RPMI-1640 with 10% FBS. To run the assay, the cells (180 μl, 6000 cells) were added to each well in a 96-well plate and incubated for 24 hours at 37° C. with 5% CO2. Next, the cells were treated with test compounds (20 μl) at various concentrations in appropriate cell culture medium (total volume, 0.2 mL). The control wells contain cells and the medium but lack the test compounds. The plates were incubated for 120 hours at 37° C. with 5% CO2. MTT (5 mg/ml) was then added to the wells (20 μl) and the plates were incubated for 1.5 hr at 37° C. The medium was carefully removed and DMSO (180 μl) was added afterward. After it was shaken for 15 min, the absorbance was measured at 490 nm and 570 nm with a reference filter of 620 nm. The inhibition % was calculated according to the following equation: inhibition %=[1-(assay-blank)/(control-blank)]×100.

[2] = test system: human gastric carcinoma N-87 cell line tumor xenograft; assay: Antitumor activity in vivo, tumor xenograft model; parameters: species or system BALB/c Nude mice
Protocol: The in vivo efficacy of conjugates 196a, 201, 206, 354, 358, 370, 377, 385, and 407 along with T-DM1 were evaluated in a human gastric carcinoma N-87 cell line tumorxenograft models. Five-week-old female BALB/c Nude mice ([…]) were inoculated subcutaneously in the area under the right shoulder with N-87 carcinoma cells (5×10^6 cells/mouse) in 0.1 mL of serum-free medium. The tumors were grown for 8 days to an average size of 130 mm^3. The animals were then randomly divided into […] (6 animals per group). The first group of mice served as the control group and was treated with the phosphate-buffered saline vehicle. The remaining […] were treated with conjugates 196a, 201, 206, 354, 358, 370, 377, 385, 407 and T-DM1 respectively at dose of 6 mg/Kg administered intravenously. Three dimensions of the tumor were measured every 4 days and the tumor volumes were calculated using the formula tumor volume=1/2 (length×width×height). The weight of the animals was also measured at the same time. A mouse was sacrificed when any one of the following criteria was met: (1) loss of body weight of more than 20% from pretreatment weight, (2) tumor volume larger than 1500 mm^3, (3) too sick to reach food and water, or (4) skin necrosis. A mouse was considered to be tumor-free if no tumor was palpable.

## T-DM1
[1]
  IC50: 0.07 nM
[2]; 6 mg/Kg intravenously
  duration of tumor growth inhibition: 38 days
[2]; 6 mg/Kg, i.v., one injection
  elimination / eradication of the tumors: not able to eliminate the tumors
